Data from the NIST ThermoML archive (doi:10.1021/je300736k).
± gives the expanded uncertainty stated by the source.

Conditions: Liquid, Closed cell (Static) method

SMILES | vapor or sublimation pressure (278.15 K) | vapor or sublimation pressure (283.15 K) | vapor or sublimation pressure (288.15 K) | vapor or sublimation pressure (293.15 K) | vapor or sublimation pressure (298.15 K) | vapor or sublimation pressure (303.15 K) | vapor or sublimation pressure (308.15 K) | vapor or sublimation pressure (313.15 K) | vapor or sublimation pressure (318.15 K) | vapor or sublimation pressure (323.15 K)
CCCO [propan-1-ol] | 0.704 ± 0.027 kPa | 1.012 ± 0.027 kPa | 1.449 ± 0.028 kPa | 2.038 ± 0.028 kPa | 2.838 ± 0.029 kPa | 3.866 ± 0.029 kPa | 5.229 ± 0.03 kPa | 7.006 ± 0.032 kPa | 9.295 ± 0.035 kPa | 12.18 ± 0.037 kPa
CC12CCC(CC1)C(C)(C)O2 [1,3,3-trimethyl-2-oxabicyclo[2.2.2]octane] | 0.071 ± 0.026 kPa | 0.093 ± 0.026 kPa | 0.13 ± 0.026 kPa | 0.178 ± 0.026 kPa | 0.253 ± 0.026 kPa | 0.346 ± 0.026 kPa | 0.477 ± 0.026 kPa | 0.627 ± 0.027 kPa | 0.828 ± 0.027 kPa | 1.101 ± 0.027 kPa
